PubChem BioAssay AID248 (DTP/NCI, 2004)
Values joined by “and” are separate entries in the source; they are usually repeats but may differ in a detail not shown here. Equal values may be shown once. Toxic doses and inconclusive results are not listed. Rule as the data show it: active = T/C of 150% or more; inactive = T/C below 125%. Bridge positions count the residues as written; N and C are the ends. Peptide text beside a SMILES is read from it. I, II: the chains in the order shown.

System: L1210 leukemia ip in BDF1 mice, survival T/C
Assay: NCI In Vivo Anticancer Drug Screen. Data for tumor model L1210 Leukemia (intraperitoneal) in B6D2F1 (BDF1) mice
Conditions: endpoint: mean survival time, higher = longer survival
Method in brief: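 Read-out is survival time, reported as the treated-group measurement over the vehicle-control measurement.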

[1] = dose: 100.0 mg/kg/injection, schedule: Q01DX009 (ip), vehicle: Klucel (hydroxypropylcellulose) (HPC)
[2] = dose: 100.0 mg/kg/injection, schedule: Q04DX003 (ip), vehicle: Klucel (hydroxypropylcellulose) (HPC)
[3] = dose: 200.0 mg/kg/injection, schedule: Q01DX009 (ip), vehicle: Klucel (hydroxypropylcellulose) (HPC)
[4] = dose: 200.0 mg/kg/injection, schedule: Q04DX003 (ip), vehicle: Klucel (hydroxypropylcellulose) (HPC)
[5] = dose: 400.0 mg/kg/injection, schedule: Q01DX009 (ip), vehicle: Klucel (hydroxypropylcellulose) (HPC)
[6] = dose: 400.0 mg/kg/injection, schedule: Q04DX003 (ip), vehicle: Klucel (hydroxypropylcellulose) (HPC)
[7] = dose: 100.0 mg/kg/injection, schedule: Q01DX001 (ip), vehicle: saline
[8] = dose: 200.0 mg/kg/injection, schedule: Q01DX001 (ip), vehicle: saline
[9] = dose: 400.0 mg/kg/injection, schedule: Q01DX001 (ip), vehicle: saline
[10] = dose: 100.0 mg/kg/injection, schedule: Q04DX003 (ip), vehicle: saline with Tween-80
[11] = dose: 200.0 mg/kg/injection, schedule: Q04DX003 (ip), vehicle: saline with Tween-80
[12] = dose: 400.0 mg/kg/injection, schedule: Q04DX003 (ip), vehicle: saline with Tween-80
[13] = dose: 100.0 mg/kg/injection, schedule: Q04DX003 (ip), vehicle: other
[14] = dose: 200.0 mg/kg/injection, schedule: Q04DX003 (ip), vehicle: other
[15] = dose: 400.0 mg/kg/injection, schedule: Q04DX003 (ip), vehicle: other
[16] = dose: 100.0 mg/kg/injection, schedule: Q04DX002 (ip), vehicle: Klucel (hydroxypropylcellulose) (HPC)
[17] = dose: 200.0 mg/kg/injection, schedule: Q04DX002 (ip), vehicle: Klucel (hydroxypropylcellulose) (HPC)
[18] = dose: 400.0 mg/kg/injection, schedule: Q04DX002 (ip), vehicle: Klucel (hydroxypropylcellulose) (HPC)
[19] = dose: 50.0 mg/kg/injection, schedule: Q01DX009 (ip), vehicle: Klucel (hydroxypropylcellulose) (HPC)

Measured: T/C

NCC(=O)NC(CSSCC(NC(=O)CN)C(=O)O)C(=O)O (stereo not drawn) (I: H-Gly-Cys-OH / II: H-Gly-Cys-OH; disulfide I:2-II:2; configuration not given here)
inactive: dose: 75.0 mg/kg/injection, schedule: Q01DX001 (ip), vehicle: saline 99 % of control | dose: 150.0 mg/kg/injection, schedule: Q01DX001 (ip), vehicle: saline 102 % of control | dose: 300.0 mg/kg/injection, schedule: Q01DX001 (ip), vehicle: saline 100 % of control

CCCCC(NC(C)=O)C(=O)O (configuration not stated)
inactive: [1] 96 % of control and 100 % of control | [2] 90 % of control | [3] 86 % of control and 97 % of control | [4] 97 % of control | [5] 88 % of control | [6] 90 % of control

Nc1ccn(C2OC(CO)C(O)C(O)C2N)c(=O)n1 (configuration not stated)
inactive: [7] 97 % of control | [8] 103 % of control | [9] 100 % of control

COC(=O)/C(=C\c1ccncc1)c1cccc2ccccc12
inactive: [10] 104 % of control | [11] 100 % of control | [12] 94 % of control

CCCCCCCCCCC/C(C)=N/Nc1ccc([N+](=O)[O-])cc1[N+](=O)[O-]
inactive: dose: 100.0 mg/kg/injection, schedule: Q01DX001 (ip), vehicle: saline with Tween-80 94 % of control | dose: 200.0 mg/kg/injection, schedule: Q01DX001 (ip), vehicle: saline with Tween-80 92 % of control | dose: 400.0 mg/kg/injection, schedule: Q01DX001 (ip), vehicle: saline with Tween-80 92 % of control

C1CC2OC2CC1C1CO1 (configuration not stated)
inactive: dose: 100.0 mg/kg/injection, schedule: Q04DX003 (ip), vehicle: saline 105 % of control | dose: 200.0 mg/kg/injection, schedule: Q04DX003 (ip), vehicle: saline 109 % of control | dose: 400.0 mg/kg/injection, schedule: Q04DX003 (ip), vehicle: saline 102 % of control

CCOC(=O)NP(=O)(NC1CCCCC1)NC1CCCCC1
inactive: dose: 50.0 mg/kg/injection, schedule: Q01DX001 (ip), vehicle: alcohol 92 % of control | dose: 100.0 mg/kg/injection, schedule: Q01DX001 (ip), vehicle: alcohol 96 % of control | dose: 200.0 mg/kg/injection, schedule: Q01DX001 (ip), vehicle: alcohol 90 % of control

COC(=O)CCc1ccc(OC)cc1
inactive: [13] 100 % of control | [14] 99 % of control | [15] 106 % of control

CCCCCCCCCCCCc1c2ccccc2cc2ccccc12
inactive: [7] 97 % of control | [8] 98 % of control | [9] 92 % of control

O=C(c1ccccc1)c1c[nH]c2c(O)ccc(O)c12
inactive: dose: 12.5 mg/kg/injection, schedule: Q04DX002 (ip), vehicle: Klucel (hydroxypropylcellulose) (HPC) 91 % of control | dose: 25.0 mg/kg/injection, schedule: Q04DX002 (ip), vehicle: Klucel (hydroxypropylcellulose) (HPC) 95 % of control | dose: 50.0 mg/kg/injection, schedule: Q04DX002 (ip), vehicle: Klucel (hydroxypropylcellulose) (HPC) 95 % of control

COc1cccc(OC)c1OC(=O)NS(=O)(=O)c1ccc(Cl)cc1
inactive: dose: 100.0 mg/kg/injection, schedule: Q01DX009 (ip), vehicle: saline with Tween-80 116 % of control | [10] 104 % of control | dose: 200.0 mg/kg/injection, schedule: Q01DX009 (ip), vehicle: saline with Tween-80 98 % of control | [11] 97 % of control | dose: 400.0 mg/kg/injection, schedule: Q01DX009 (ip), vehicle: saline with Tween-80 106 % of control | [12] 103 % of control

O=[N+]([O-])c1ccc2c(c1)-c1ccccc1C2O (configuration not stated)
inactive: dose: 100.0 mg/kg/injection, schedule: Q01DX005 (ip), vehicle: Klucel (hydroxypropylcellulose) (HPC) 105 % of control | [16] 107 % of control | dose: 200.0 mg/kg/injection, schedule: Q01DX005 (ip), vehicle: Klucel (hydroxypropylcellulose) (HPC) 94 % of control | [17] 93 % of control | dose: 400.0 mg/kg/injection, schedule: Q01DX005 (ip), vehicle: Klucel (hydroxypropylcellulose) (HPC) 91 % of control | [18] 104 % of control

CSc1nc(N)c(N)c(N)n1
inactive: [16] 103 % of control | [17] 110 % of control | [18] 103 % of control

CC(=O)N(C1=C(Cl)C(=O)c2ccccc2C1=O)c1ccc(Cl)cc1
inactive: dose: 75.0 mg/kg/injection, schedule: Q01DX001 (ip), vehicle: carboxymethylcellulose (CMC) 93 % of control | dose: 150.0 mg/kg/injection, schedule: Q01DX001 (ip), vehicle: carboxymethylcellulose (CMC) 92 % of control

CN(C)CCCNc1nc(Cl)nc(Cl)n1
inactive: dose: 50.0 mg/kg/injection, schedule: Q01DX009 (ip), vehicle: saline 96 % of control | dose: 100.0 mg/kg/injection, schedule: Q01DX009 (ip), vehicle: saline 92 % of control | dose: 200.0 mg/kg/injection, schedule: Q01DX009 (ip), vehicle: saline 96 % of control

O=C(CBr)NCC(S)c1ccc(Cl)cc1 (configuration not stated)
inactive: [19] 97 % of control | [1] 95 % of control | [2] 93 % of control | [4] 88 % of control | [6] 102 % of control

OC(CC(O)(C(F)(F)F)C(F)(F)F)CC(O)(C(F)(F)F)C(F)(F)F
inactive: dose: 25.0 mg/kg/injection, schedule: Q01DX009 (ip), vehicle: saline with Tween-80 101 % of control | [10] 95 % of control

O=C(CCCN1CC=C(n2c(=O)[nH]c3ccccc32)CC1)c1ccc(F)cc1
inactive: dose: 6.25 mg/kg/injection, schedule: Q01DX009 (ip), vehicle: Klucel (hydroxypropylcellulose) (HPC) 100 % of control | dose: 6.25 mg/kg/injection, schedule: Q04DX003 (ip), vehicle: Klucel (hydroxypropylcellulose) (HPC) 103 % of control | dose: 12.5 mg/kg/injection, schedule: Q01DX009 (ip), vehicle: Klucel (hydroxypropylcellulose) (HPC) 104 % of control | dose: 12.5 mg/kg/injection, schedule: Q04DX003 (ip), vehicle: Klucel (hydroxypropylcellulose) (HPC) 103 % of control | dose: 25.0 mg/kg/injection, schedule: Q01DX009 (ip), vehicle: Klucel (hydroxypropylcellulose) (HPC) 98 % of control | dose: 25.0 mg/kg/injection, schedule: Q04DX003 (ip), vehicle: Klucel (hydroxypropylcellulose) (HPC) 103 % of control | [19] 102 % of control | dose: 50.0 mg/kg/injection, schedule: Q04DX003 (ip), vehicle: Klucel (hydroxypropylcellulose) (HPC) 106 % of control | [1] 94 % of control | [2] 101 % of control and 111 % of control

CC(C)N(C(=O)Nc1cccc(C(F)(F)F)c1)C1CCCCC1
inactive: dose: 100.0 mg/kg/injection, schedule: Q01DX009 (ip), vehicle: gum acacia 90 % of control | dose: 200.0 mg/kg/injection, schedule: Q01DX009 (ip), vehicle: gum acacia 98 % of control | dose: 400.0 mg/kg/injection, schedule: Q01DX009 (ip), vehicle: gum acacia 88 % of control

CCCCCCCCN(C)N=Nc1ccc(C(=O)O)cc1
inactive: dose: 25.0 mg/kg/injection, schedule: Q04DX003 (ip), vehicle: other 93 % of control | dose: 50.0 mg/kg/injection, schedule: Q04DX003 (ip), vehicle: other 90 % of control | [1] 102 % of control | [13] 92 % of control | [3] 102 % of control | [14] 90 % of control | dose: 300.0 mg/kg/injection, schedule: Q01DX009 (ip), vehicle: Klucel (hydroxypropylcellulose) (HPC) 98 % of control | [5] 122 % of control and 90 % of control | [15] 95 % of control | dose: 600.0 mg/kg/injection, schedule: Q01DX009 (ip), vehicle: Klucel (hydroxypropylcellulose) (HPC) 98 % of control

C=C1C(=O)O[C@H]2C=C(C)[C@H]3[C@@H](OC(C)=O)C[C@@](C)(O)[C@@H]3C[C@H]12
inactive: dose: 50.0 mg/kg/injection, schedule: Q01DX Z (ip), vehicle: carboxymethylcellulose (CMC) 94 % of control

CC(=O)c1cccc(NC(=O)Nc2cccc(F)c2)c1
inactive: [1] 103 % of control | [3] 97 % of control | [5] 110 % of control
